The results in this text go back to patent publication US20110071177A1, “FUNGICIDAL ACTIVE SUBSTANCE COMBINATION” (Bayer CropScience AG, priority 2005, published 2011).

The experiment concerns Sphaerotheca fuliginea. Kind of experiment: Sphaerotheca test (cucumber) / protective. It counts as in vivo, Sphaerotheca fuliginea on cucumber. Particulars: application rate 4 ppm, evaluation 7 days after inoculation. On the procedure:
Solvents: 24.5 parts by weight of acetone • 24.5 parts by weight of dimethylacetamide Emulsifier: 1 part by weight of alkylaryl polyglycol ether To produce a suitable preparation of active compound, 1 part by weight of active compound or active compound combination is mixed with the stated amounts of solvents and emulsifier, and the concentrate is diluted with water to the desired concentration, or a commercial formulation of active compound or active compound combination with water is diluted with water to the desired concentration. To test for protective activity, young plants are sprayed with the active compound preparation at the stated application rate. After the spray coating has dried on, the plants are inoculated with an aqueous spore suspension of Sphaerotheca fuliginea. The plants are then placed in a greenhouse at about 23° C. and a relative atmospheric humidity of about 70%. Evaluation is carried out 7 days after inoculation. Here, 0% means an efficacy which corresponds to that of the control, whereas an efficacy of 100% means that no infestation is observed.

In the case of `CO/N=C(/C(=O)OC)c1ccccc1CO/N=C(\C)c1cccc(C(F)(F)F)c1` [2-[α-{[(α-methyl-3-trifluoromethylbenzyl)imino]oxy}-o-tolyl]glyoxylic acid methyl ester O-methyloxime], the “% efficacy” value is 10%.
